According to patent US5707821A, “Identification of phospholipase A2 inhibitors in Aβ peptide-mediated neurodegenerative disease” (priority 1995, dated 1998):
pIC50: −log10 of the molar value.

Tests used:
Type in all cases: cell-based
human cortical neurons = test: Aβ neurotoxicity / survival of human cortical neurons (alamarBlue), compound added at time of Aβ1-40
Description: Cultures of human cortical or hippocampal neurons were prepared using a modification of the procedure described in P. Seubert et al. (1992), Nature 359:325-327. Cortical or hippocampal tissue was dissociated by incubation in a trypsin/EDTA solution (0.05% trypsin +0.53 mM EDTA in HBSS; Gibco) for 20 minutes at 37° C. The trypsin was then inactivated by resuspending the cells in serum-containing medium (MEM/FBS): Modified Eagle's Medium (MEM) containing 1% glucose, 1 mM sodium pyruvate, 1 mM glutamine, and supplemented with 10% fetal bovine serum (Gibco). Cells were then pelleted by centrifugation and resuspended in a chemically-defined medium (MEM/B27): MEM containing B27 supplement (Gibco) in place of FBS. Polyethyleneimine (PEI)-coated 6.4-mm (96-well) dishes were rinsed once with MEM/FBS, and then seeded at 0.75-1.25×10^5 cells per well in 0.1 ml MEM/B27. Cultures were maintained in a H2 O-saturated incubator with an atmosphere of 95% air/5% CO2 at 37° C. The culture medium was exchanged twice weekly.
Amyloid-β (Aβ) stock solutions were prepared as 1 mM stocks in sterile ddH2 O immediately prior to addition to cultures. Rat cortical neurons were exposed to Aβ by removing the culture medium and replacing it with DMEM/N2 or DMEM/B27 containing Aβ1-40. Human cortical neurons were exposed to Aβ by removing the culture medium and replacing it with MEM, MEM/N2, or MEM/B27 containing Aβ1-40. Cultures were maintained for 2-4 days before neuronal survival was quantified using alamarBlue™.
The alamarBlue™ assay incorporated a proprietary fluorometric/colorimetric metabolic indicator (Alamar Biosciences, Inc.). Viable cells convert alamarBlue™ from an oxidized (non-fluorescent, blue) form to a reduced (fluorescent, red) form. Assays were performed by replacing the culture media with a 10% alamarBlue™ solution in DMEM (rat cortical cultures) or MEM (human cortical cultures). Reduction of alamarBlue™ was determined spectrofluorometrically using a Millipore Cytofluor 2350 Scanner (excitation, […]; emission, 590 nm) and CytoCalc™ software (Millipore Corporation).
The effect of the two benzenesulfonamide inhibitors of PLA2 in Example 2 were examined to determine the dose-dependence of their effect on neuronal survival in human cortical neuron cultures exposed to 0 μM, 25μM, or 50 μM of Aβ1-40 and varying doses of the benzenesulfonamide.
Human cortical neurons were treated with 50 μM Aβ1-40 and various inhibitors of PLA2 or PLC. Compounds were added at the time of Aβ1-40 treatment at concentrations 390 nM to 100 μM. Compounds were also added to neuronal cultures in the absence of Aβ1-40. Neuronal survival was determined after 3 days of treatment by alamarBlue®. IC50 is the dose of compound that inhibited Aβ-mediated neurotoxicity by 50%. […] Data represents the mean ± SD (n=3). ND, not detected at the concentration range used.

[1] = test system: IL-1β release by cultured human cortical microglia; test: IL-1β release (ELISA) from Aβ1-40-stimulated human microglia
Description: (§1) Cultures of human cortical or hippocampal astrocytes and microglia were prepared using a modification of the procedure described for cortical neurons. Cortical tissue from fetuses of 16 to 20 weeks of gestation was washed 3 times in Ca^2+ /Mg^2+ free Hanks balanced salt solution (CMF HBSS) and then dissociated by repeated pipetting. The solution was brought to a final volume of 80 ml CMF HBSS for approximately 10 ml of tissue. DNase (Sigma) was added to a final concentration of 0.05 mg/ml. 20 ml of the solution was passed through one 100 μm nylon cell strained (Falcon). The cells were then centrifuged for 5 minutes at 200×G in an IEC Clinical Centrifuge and resuspended in a trypsin/EDTA solution (0.05% trypsin+0.53 mM EDTA in HBSS; Gibco) and incubated for 20 minutes at 37°C. (10 ml of trypsin was added per 2-3 ml of tissue). The trypsin was then inactivated by adding (MEM/FBS): Modified Eagle's Medium (MEM) containing 1% glucose, 1 mM sodium pyruvate, 1 mM glutamine, and supplemented with 10% fetal bovine serum (JRH). After adding a final concentration of 0.05 mg/ml DNase the cells were resuspended and then pelleted by centrifugation and resuspended in MEM/FBS. 1.6×10^8 cells were seeded in a T-150 tissue culture flask coated with polyethyleneimine (PEI). (10% PEI (Sigma) was diluted 1:10 in H2 O, filtered through a […] unit and then diluted into 150 mM sodium borate pH 8.5 at 1:100. The flasks were coated overnight at room temperature, washed two times in PBS and coated with 20 ml/flask of MEM/FBS at 37° C. for at least one hour prior to plating cells.) Cultures were maintained in a H2 O-saturated incubator with an atmosphere of 95% air/5% CO2 at 37° C. The culture medium was changed one and four days after plating and the cultures were then left undisturbed for at least one week. After approximately two weeks in vitro, the flasks were gently shaken and floating microglia were collected and centrifuged for 5 minutes at 200×G in an IEC Clinical Centrifuge. The microglia were reseeded in 96 well tissue culture plates at a density of 5,000-40,000 cells/well in 125 μl in MEM/FBS. Astrocyte cultures were prepared by multiple passaging of the established mixed brain cell cultures. Each T-150 was incubated for 3-4 minutes at 37°C. with a trypsin/EDTA solution (see above). The trypsin was then inactivated by adding MEM/FBS. The cells were triturated and then pelleted by centrifugation and resuspended in MEM/FBS. The cells from one T-150 were seeded at a 1:30 to 1:5 dilution in T-150's not coated. Just prior to confluency the cells were repassaged by trypsinization as described above. This process was repeated until the cultures were >98% pure astrocytes.
Cultured microglial cells were treated with 50 μM of Aβ1-40 or vehicle only (Control). The levels of IL-1β, IL-6, and TNF-α released into the culture medium were determined by ELISA assay (R&D Systems) according to manufacturer's instructions.
The effect of two benzenesulfonamide inhibitors of PLA2 (European Patent Application 468 054) were examined on the activation of microglial cells by Aβ1-40 as in Example 1.
(§2) The effects of the benzenesulfonamide PLA2 inhibitor AN20606 and the selective cytosolic PLA2 inhibitor arachidonyl trifluoromethyl ketone (AN20579) were examined in cultured human cortical microglia for their selectivity for inhibiting microglia activation mediated by amyloid-βpeptide and lipopolysaccharides (LPS). LPS are a major constituent of the cell wall of gama-negative bacteria and are extensively used for generating inflammatory responses in cultured cells and in vivo.

[2] = test system: IL-1β release by cultured human cortical microglia; test: IL-1 release from LPS-stimulated human cortical microglia
Description: as §1, §2

Compound: CN(C(=O)/C=C/c1ccc(S(C)(=O)=O)cc1)c1ccc(S(=O)(=O)NC2CCCCCC2)cc1 [AN20606, N-cycloheptyl-4-[N-methyl-N-[(E)-3-(4-methylsulfonylphenyl)-2-propenoyl]amino]benzenesulfonamide]
- neuronal survival in the presence of pathogenic Aβ peptide (in words) (human cortical neurons; 0, 25 or 50 μM Aβ1-40, varying doses, FIG. 3, FIG. 4): dose-dependent increase in neuronal survival
- Max Inh (human cortical neurons; 50 μM Aβ1-40, compound 390 nM to 100 μM added at time of Aβ, 3 days, n=3): 80%
- pIC50 (human cortical neurons; Homo sapiens, Cortical neurone, 72 h, 50 μM Aβ1-40, compound 390 nM to 100 μM added at time of Aβ, 3 days, n=3, ND = not detected at the concentration range used, read-out: IC50 (dose that inhibited Aβ-mediated neurotoxicity by 50%)): 5.30
- amount of IL-1β released into the medium (in words) ([1]; 50 μM Aβ1-40, 1 day, compound 0, 5, 10, 20 μM, FIG. 2): marked and dose-dependent decrease
- IL-1 Released ([1]; 50 μM Aβ1-40, inhibitor 20 μM where present): 16.5 ± 6 pg/mL
- Aβ1-40-mediated IL-1β release, selectivity versus LPS (in words) ([1]; Aβ1-40 versus LPS stimulation): selectively inhibited
- activity at 20 µM ([1]; Homo sapiens, Microglia, 50 μM Aβ1-40 + 20 μM inhibitor, read-out: IL-1 Released, percent in parentheses (relative to Aβ1-40 alone)): 6%
- IL-1 Released ([2]; 10 ng/ml LPS, inhibitor 20 μM where present): 37 ± 0.3 pg/mL
- activity at 20 µM ([2]; Homo sapiens, Microglia, 10 ng/ml LPS + 20 μM inhibitor, read-out: IL-1 Released, percent in parentheses (relative to LPS alone)): 163%
- LPS-mediated cytokine release, IL-1 (in words) ([2]; LPS stimulation): actually enhanced
